# Test results from patent publication US20090246134A1, “COMPOSITIONS AND METHODS FOR MODULATING GATED ION CHANNELS” (PainCeptor Pharma Corporation, priority 2007, published 2009).
# Tests used:
# ASIC1a [1] = target: T1, ASIC1a (Homo sapiens, UniProt P78348); assay: Calcium-imaging (calcium mobilization, FLIPR) assay in ASIC1a expressing HEK293 cells; type: cell-based; set-up: host or cells: HEK293; conditions: n=3-7, compounds not radiolabelled
# T1 sequence (P78348 1-528): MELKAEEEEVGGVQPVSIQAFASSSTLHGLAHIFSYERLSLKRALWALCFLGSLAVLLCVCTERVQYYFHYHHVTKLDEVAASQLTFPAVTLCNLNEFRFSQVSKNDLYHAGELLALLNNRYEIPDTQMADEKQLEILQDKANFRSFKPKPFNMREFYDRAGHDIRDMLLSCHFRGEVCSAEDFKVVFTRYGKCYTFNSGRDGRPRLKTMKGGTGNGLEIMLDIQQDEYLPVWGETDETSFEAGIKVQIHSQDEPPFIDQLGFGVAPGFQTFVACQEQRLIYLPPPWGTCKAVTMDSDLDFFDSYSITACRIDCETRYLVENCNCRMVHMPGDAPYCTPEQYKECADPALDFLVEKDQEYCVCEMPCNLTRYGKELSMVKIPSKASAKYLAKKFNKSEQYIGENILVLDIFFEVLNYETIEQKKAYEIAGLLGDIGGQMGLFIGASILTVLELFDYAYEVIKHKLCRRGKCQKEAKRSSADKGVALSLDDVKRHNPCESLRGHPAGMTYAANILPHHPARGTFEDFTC
# Experimental: ASIC1a expressing HEK293 cells are grown in culture medium (DMEM with 10% FBS), in polystyrene culture flasks ([…]) at 37° C. in a humidified atmosphere of 5% CO2. Confluency of cells should be 80-90% on day of plating. Cells are rinsed with 10 ml of PBS and re-suspended by addition of culture medium and trituration with a 25 ml pipette.
# The cells are seeded at a density of approximately 1×10^6 cells/ml (100 μl/well) in black-walled, clear bottom, 96-well plates pre-treated with 10 mg/l poly-D-lysin (75 μl/well for ≧30 min). Plated cells were allowed to proliferate for 24 h before loading with dye.
# Fluo-4/AM (1 mg, Molecular Probes) is dissolved in 912 μl DMSO. The Fluo-4/AM stock solution (1 mM) is diluted with culture medium to a final concentration of 2 μM (loading solution).
# The culture medium is aspirated from the wells, and 50 μl of the Fluo-4/AM loading solution is added to each well. The cells are incubated at 37° C. for 30 min.
# After the loading period, the loading solution is aspirated and the cells are washed twice with 100 μl modified Assay Buffer (145 mM NaCl, 5 mM KCl, 5 mM CaCl2, 1 mM MgCl2, 10 mM HEPES, pH 7.4) to remove extracellular dye. Following the second wash, 100 μl modified Assay Buffer is added to each well and the fluorescence is measured in FLIPR™ or FlexStation™ (Molecular Devices, USA), or any other suitable equipment known to the skilled in the art.
# Temperature: Room temperature (20-22° C.)
# First addition: 50 μl test solution at a rate of 30 μl/sec and a starting height of […]
# Second addition: 50 μl MES solution (20 mM, 5 mM final concentration) at a rate of 35 μl/sec and a starting height of 150 μl.
# Reading intervals: pre-incubation—10 sec×7 and 3 sec×3 antagonist phase—3 sec×17 and 10 sec×12
# Addition plates (compound test plate and MES plate) are placed on the right and left positions in the FLIPR tray, respectively. Cell plates are placed in the middle position and the ASIC1a program is effectuated. FLIPR will then take the appropriate measurements in accordance with the interval settings above. Fluorescence obtained after stimulation is corrected for the mean basal fluorescence (in modified Assay Buffer).
# The MES-induced peak calcium response, in the presence of test substance, is expressed relatively to the MES response alone. Test substances that block the MES-induced calcium response are re-tested in triplicates. Confirmed hits are picked for further characterization by performing full dose-response curves to determine potency of each hit compound as represented by the IC50 values (i.e., the concentration of the test substance which inhibits 50% of the MES-induced calcium response).
# It is noted that the compounds below are not radiolabelled.
# [2] = Plasma composition analysis, parent compound and metabolites by MS; type: in vivo; conditions: rat plasma; for Plasma Component: P-OH: Compound G: detected but not confirmed (footnote a)
# Experimental: Rats receive compounds (5 mg/kg) dissolved in HPβCD 15%, dextrose 2.5%, pH 5 by intravenous (i.v). route or (25-30 mg/kg) dissolved in HPβCD 15%, dextrose 2.5%, […] (s.c.) route or (50-150 mg/kg) dissolved in HPβCD 15%, dextrose 2.5%, pH 5 by oral (p.o.) route. After the treatment, approximately 100 μl of blood sample is collected and the accurate bleeding time is recorded for each sample. Each blood sample is collected into Microvette blood collection tube containing anticoagulant lithium heparin. Following collection, the samples are centrifuged at […] for 15 minutes (to avoid haemolysis) and the plasma obtained from each is recovered and stored frozen (at −80° C.) pending analysis. Frozen samples are shipped on dry ice to quantify drug concentration within plasma after extraction procedure as previously described in Example 13.
# ASIC1a [3] = target: T1, ASIC1a; assay: Whole cell patch clamp in heterologous expression system (CHO cells); type: cell-based; set-up: expressed in transfected cells; host or cells: CHO cells
# Experimental: Another example of an in vitro assessment method consists of using mammalian heterologous expression systems, which are known to the skilled in the art, and include a variety of mammalian cell lines such as COS, HEK, e.g., HEK293 and/or CHO, cells. Cell lines are transfected with gated ion channel(s) and used to perform electrophysiology as follows:
# All experiments are performed at room temperature (20-25° C.) in voltage clamp using conventional whole cell patch clamp methods (Neher, E., et al. (1978) Pfluegers Arch 375:219-228).
# The amplifier used is the EPC-9 (HEKA-electronics, Lambrect, Germany) run by a Macintosh G3 computer via an ITC-16 interface. Experimental conditions are set with the Pulse-software accompanying the amplifier. Data is low pass filtered and sampled directly to hard-disk at a rate of 3 times the cut-off frequency.
# Pipettes are pulled from borosilicate glass using a horizontal electrode puller (Zeitz-lnstrumente, Augsburg, Germany). The pipette resistances are 2-3 MOhms in the salt solutions used in these experiments. The pipette electrode is a chloridized silver wire, and the reference is a silver chloride pellet electrode (In Vivo Metric, Healdsburg, USA) fixed to the experimental chamber. The electrodes are zeroed with the open pipette in the bath just prior to sealing.
# Coverslips with the cells are transferred to a 15 μl experimental chamber mounted on the stage of an inverted microscope (IMT-2, Olympus) supplied with Nomarski optics. Cells are continuously superfused with extracellular saline at a rate of 2.5 ml/min. After giga-seal formation, the whole cell configuration is attained by suction. The cells are held at a holding voltage of −60 mV and at the start of each experiment the current is continuously measured for 45 s to ensure a stable baseline. […] Current amplitudes are measured at the peak of the responses, and effect of the compounds is calculated as the amplitude at compound equilibrium divided by the amplitude of the current evoked by the pulse just before the compound was included. […]
# [4] = test system: CFA-induced change in weight bearing in Sprague-Dawley rats; assay: CFA model of chronic inflammatory pain, hindpaw weight bearing; type: in vivo, rat; conditions: 24 h after CFA; 60 min after drug; Compound A 5, 10, 20 mg/kg i.p.; Compound H 10, 30, 60 mg/kg; morphine 3, 6, 10 mg/kg; n=7-8
# Experimental: Rats (body weight 260-300 g) were given a s.c. injection of CFA (50% in saline, 100 μl, Sigma) into the plantar surface of the hindpaw under brief halothane anaesthesia. After 24 h, they were then tested for hindpaw weight bearing responses, as assessed using an Incapacitance Tester (Linton Instrumentation, UK), (Zhu et al., 2005). The instrument incorporates a dual channel scale that separately measures the weight of the animal distributed to each hindpaw. While normal rats distribute their body weight equally between the two hindpaws (50-50), the discrepancy of weight distribution between an injured and non-injured paw is a natural reflection of the discomfort level in the injured paw (nocifensive behavior). The rats were placed in the plastic chamber designed so that each hindpaw rested on a separate transducer pad. […] For each rat, three readings from each paw were taken and then averaged. Side-to-side weight bearing difference was calculated as the average of the absolute value of the difference between two hindpaws from three trials (right paw reading-left paw reading).
# Hindpaw weight bearing responses were measured in male Sprague-Dawley rats for 2-3 days prior to being given a hindpaw injection of CFA. Twenty-four hours later baseline responses were measured and rats were then administered Compound A (5, 10 and 20 mg/kg, i.p.), Compound H (10, 30 and 60 mg/kg) and morphine (3, 6 and 10 mg/kg). Weight bearing responses were then measured at 30, 60 and 120 min after drug or vehicle injection (data shown at 60 min.). […] All groups n=7-8.
smiles,measurement,setting,value
"CCN1CCc2c(-c3ccccc3OC)cc3c(c2C1)NC(=O)/C3=N/O [Compound J, 5-(2-methoxy-phenyl)-6,7,8,9-tetrahydro-3-(hydroxyimino)-8-ethyl-1H-pyrrolo[3,2-h]isoquinoline-2(3H)-one]",IC50,ASIC1a [1],700 nM
same,Plasma Component: N-desEt,[2]; IV 5 mg/kg,Small
same,Plasma Component: O-desMe,[2]; IV 5 mg/kg (table of Compounds G and J),Small
same,Plasma Component: P-OH,[2]; IV 5 mg/kg,Small
same,Plasma Component: N-desEt,[2]; PO 50 mg/kg,Small
same,Plasma Component: O-desMe,[2]; PO 50 mg/kg (table of Compounds G and J),Small
same,Plasma Component: P-OH,[2]; PO 50 mg/kg,Small
"N=C(N)NC(=O)c1nc(Cl)c(N)nc1N [amiloride, reference compound]",human ASIC1a pH-evoked response,ASIC1a [3],reduce the human ASIC1a pH-evoked response in CHO cells in a dose-dependent manner
"CN1CC[C@]23c4c5ccc(O)c4O[C@H]2[C@@H](O)C=C[C@H]3[C@H]1C5 [morphine, reference compound]",CFA-induced change in weight bearing compared with vehicle,[4],marked dose-dependent attenuation
